These results are taken from US11319303B2 (WIGEN BIOMEDICINE TECHNOLOGY (SHANGHAI) CO., LTD., priority 2017, dated 2022).

Counter-ions that a name gives are not always drawn.

In the experiment the target is LC3B (Homo sapiens, UniProt Q9GZQ8). In words: Fluorescence Polarization (FP) Assay: displacement of FITC-labeled peptide from GST-LC3B. The class given is binding. To be noted: Fluorescence Polarization assay; GST-LC3B 180 nM, FITC-labeled peptide 18 nM, 25° C.; read-out: IC50. The method, then:
The compounds of the present invention for regulating the autophagy-related protein LC3B were tested by Fluorescence Polarization (FP) Assay.
Fluorescence Polarization (FP) Assay Test
`CN(C)CCNC=C1C(=O)CC(c2c(Cl)ccc(F)c2Cl)CC1=O` (centres unmarked) [Compound 411, 5-(2,6-dichloro-3-fluorophenyl)-2-(((2-(dimethylamino)ethyl)amino)methylene) cyclohexane-1,3-dione]: the IC50 is less than 3 µM.

`CN(C)CCNC=C1C(=O)CC(c2c(F)c(F)c(F)c(F)c2F)CC1=O` (centres unmarked) [Compound 412, 2-(((2-(dimethylamino)ethyl)amino)methylene)-5-(perfluorophenyl) cyclohexane-1,3-dione]: the IC50 is less than 3 µM.

As to `CN(C)CCNC=C1C(=O)CC(c2c[nH]cc2Br)CC1=O` (centres unmarked) [Compound 413, 5-(4-bromo-1H-pyrrole-3-yl)-2-(((2-(dimethylamino)ethyl)amino)methylene) cyclohexane-1,3-dione], the half-inhibitory concentration (IC50) is 3 to 15 µM.

In the case of `CN(C)CCNC=C1C(=O)CC(c2c[nH]c(-c3ccccc3)c2)CC1=O` (centres unmarked) [Compound 414, 2-(((2-(dimethylamino)ethyl)amino)methylene)-5-(5-phenyl-1H-pyrrole-3-yl)cyclohexane-1,3-dione], the IC50 lay within 3 to 15 µM.

As for `Cc1ccc(C2CC(=O)C(=CO)C(=O)C2)cc1` (centres unmarked) [Compound 415, 2-(hydroxymethylene)-5-(4-methylphenyl)cyclo-hexane-1,3-dione], the IC50 lay within 3 to 15 µM.

On to `O=C1CC(c2ccccc2F)CC(=O)C1=CO` (centres unmarked) [Compound 416, 2-(hydroxymethylene)-5-(2-fluorophenyl)cyclo-hexane-1,3-dione], for which the IC50 was less than 3 µM.

Turning to `O=C1CC(c2cccc(F)c2F)CC(=O)C1=CO` (centres unmarked) [Compound 417, 2-(hydroxymethylene)-5-(2,3-difluorophenyl)cyclo-hexane-1,3-dione], the IC50 is less than 3 µM.

For the compound `O=C1CC(c2ccccc2Cl)CC(=O)C1=CO` (centres unmarked) [Compound 418, 2-(hydroxymethylene)-5-(2-chlorophenyl)cyclo-hexane-1,3-dione], the IC50 is less than 3 µM.

As to `O=C1CC(c2cccc(Cl)c2)CC(=O)C1=CO` (centres unmarked) [Compound 419, 2-(hydroxymethylene)-5-(3-chlorophenyl)cyclo-hexane-1,3-dione], the IC50 was less than 3 µM.

For `O=C1CC(c2c(Cl)cccc2Cl)CC(=O)C1=CO` (centres unmarked) [Compound 420, 2-(hydroxymethylene)-5-(2,6-dichlorophenyl)cyclo-hexane-1,3-dione], the IC50 was less than 3 µM.

Turning to `O=C1CC(c2cccc(Cl)c2Cl)CC(=O)C1=CO` (centres unmarked) [Compound 421, 2-(hydroxymethylene)-5-(2,3-dichlorophenyl)cyclo-hexane-1,3-dione], the IC50 is less than 3 µM.

`O=C1CC(c2ccccc2Br)CC(=O)C1=CO` (centres unmarked) [Compound 422, 2-(hydroxymethylene)-5-(2-bromophenyl)cyclo-hexane-1,3-dione]: the IC50 was less than 3 µM.

Take `COc1ccccc1C1CC(=O)C(=CO)C(=O)C1` (centres unmarked) [Compound 423, 2-(hydroxymethylene)-5-(2-methoxyphenyl)cyclo-hexane-1,3-dione]: the IC50 lay within 3 to 15 µM.

`COc1ccc(C2CC(=O)C(=CO)C(=O)C2)c(OC)c1` (centres unmarked) [Compound 424, 2-(hydroxymethylene)-5-(2,4-dimethoxyphenyl) cyclohexane-1,3-dione]: the IC50 was 3 to 15 µM.

Consider `N#Cc1ccc(C2CC(=O)C(=CO)C(=O)C2)cc1` (centres unmarked) [Compound 425, 2-(hydroxymethylene)-5-(4-cyanophenyl)cyclo-hexane-1,3-dione], for which the concentration for half-maximal inhibition (IC50) fell in the range of 15 to 100 µM.

Consider `O=C1CC(c2ccccc2C(F)(F)F)CC(=O)C1=CO` (centres unmarked) [Compound 426, 2-(hydroxymethylene)-5-(2-trifluoromethylphenyl) cyclohexane-1,3-dione], for which the IC50 is less than 3 µM.

With `O=C1CC(c2cccs2)CC(=O)C1=CO` (centres unmarked) [Compound 427, 2-(hydroxymethylene)-5-(2-thiophen)cyclohexane-1,3-dione], the IC50 was in the range of 3 to 15 µM.

On to `O=C1CC(c2ccsc2)CC(=O)C1=CO` (centres unmarked) [Compound 428, 2-(hydroxymethylene)-5-(3-thiophen)cyclohexane-1,3-dione], for which the IC50 was 3 to 15 µM.

For the compound `O=C1CC(c2cccc3[nH]ccc23)CC(=O)C1=CO` (centres unmarked) [Compound 429, 2-(hydroxymethylene)-5-(1H-indol-4-yl)cyclohexane-1,3-dione], the IC50 is less than 3 µM.

As to `O=C1CC(c2c[nH]c3ccccc23)CC(=O)C1=CO` (centres unmarked) [Compound 430, 2-(hydroxymethylene)-5-(1H-indol-3-yl)cyclohexane-1,3-dione], the IC50 was less than 3 µM.

For the compound `O=C1CC(c2ccnc3ccccc23)CC(=O)C1=CO` (centres unmarked) [Compound 431, 2-(hydroxymethylene)-5-(4-quinoline)cyclohexane-1,3-dione], the IC50 lay within 3 to 15 µM.

For `COc1ccc(Br)c(C2CC(=O)C(=CO)C(=O)C2)c1` (centres unmarked) [Compound 432, 2-(hydroxymethylene)-5-(2-bromo-5-methoxyphenyl)cyclo-hexane-1,3-dione], the IC50 was less than 3 µM.

For the compound `COc1cc(Br)c(C2CC(=O)C(=CO)C(=O)C2)cc1OC` (centres unmarked) [Compound 433, 2-(hydroxymethylene)-5-(2-bromo-4,5-dimethoxyphenyl) cyclohexane-1,3-dione], the IC50 is less than 3 µM.

For the compound `O=C1CC(c2ccccc2[N+](=O)[O-])CC(=O)C1=CO` (centres unmarked) [Compound 434, 2-(hydroxymethylene)-5-(2-nitrophenyl)cyclo-hexane-1,3-dione], the IC50 was in the range of 3 to 15 µM.

In the case of `O=C1CC(c2cccc([N+](=O)[O-])c2)CC(=O)C1=CO` (centres unmarked) [Compound 435, 2-(hydroxymethylene)-5-(3-nitrophenyl)cyclo-hexane-1,3-dione], the IC50 was in the range of 3 to 15 µM.

Take `O=C1CC(c2ccc([N+](=O)[O-])cc2)CC(=O)C1=CO` (centres unmarked) [Compound 436, 2-(hydroxymethylene)-5-(4-nitrophenyl)cyclo-hexane-1,3-dione]: the 50% inhibitory concentration (IC50) lay within 3 to 15 µM.

In the case of `O=C1CC(c2ccc(C(F)(F)F)cc2)CC(=O)C1=CO` (centres unmarked) [Compound 437, 2-(hydroxymethylene)-5-(4-trifluoromethylphenyl) cyclohexane-1,3-dione], the concentration for half-maximal inhibition (IC50) was 3 to 15 µM.

With `O=C1CC(c2ccc(Br)cc2)CC(=O)C1=CO` (centres unmarked) [Compound 438, 2-(hydroxymethylene)-5-(4-bromophenyl)cyclo-hexane-1,3-dione], the IC50 is 3 to 15 µM.

Consider `O=C1CC(c2cccc(Br)c2)CC(=O)C1=CO` (centres unmarked) [Compound 439, 2-(hydroxymethylene)-5-(3-bromophenyl)cyclo-hexane-1,3-dione], for which the IC50 lay in the range of 3 to 15 µM.

For `CSc1ccc(C2CC(=O)C(=CO)C(=O)C2)cc1` (centres unmarked) [Compound 440, 5-(4-methylthiophenyl)-2-(hydroxymethylene) cyclohexane-1,3-dione], the IC50 is 3 to 15 µM.

For `COc1cccc(OC)c1C1CC(=O)C(=CO)C(=O)C1` (centres unmarked) [Compound 441, 2-(hydroxymethylene)-5-(2,6-dimethoxyphenyl) cyclohexane-1,3-dione], the IC50 lay within 15 to 100 µM.

Take `O=C1CC(c2ccccc2O)CC(=O)C1=CO` (centres unmarked) [Compound 442, 2-(hydroxymethylene)-5-(2-hydroxyphenyl)cyclo-hexane-1,3-dione]: the concentration for half-maximal inhibition (IC50) was 15 to 100 µM.

As to `O=C1CC(c2ccc(O)cc2)CC(=O)C1=CO` (centres unmarked) [Compound 443, 2-(hydroxymethylene)-5-(4-hydroxyphenyl)cyclo-hexane-1,3-dione], the half-inhibitory concentration (IC50) fell in the range of 15 to 100 µM.

As to `O=C1CC(c2ccccc2)CC(=O)C1=CO` (centres unmarked) [Compound 444, 2-(hydroxymethylene)-5-phenylcyclohexane-1,3-dione], the IC50 fell in the range of 3 to 15 µM.

Take `O=C1CC(CCc2ccc3c(c2)OCO3)CC(=O)C1=CO` (centres unmarked) [Compound 445, 2-(hydroxymethylene)-5-(2-(benzo[d] [1,3]dioxo-5-yl)ethyl)-cyclohexane-1,3-dione]: the IC50 is 15 to 100 µM.

Regarding `O=C1CC(c2cccc(F)c2)CC(=O)C1=CO` (centres unmarked) [Compound 446, 2-(hydroxymethylene)-5-(3-fluorophenyl)cyclo-hexane-1,3-dione], the half-inhibitory concentration (IC50) fell in the range of 3 to 15 µM.

As to `O=C1CC(c2c(C(F)(F)F)ccc(Cl)c2F)CC(=O)C1=CO` (centres unmarked) [Compound 447, 2-(hydroxymethylene)-5-((2-fluoro-3-chloro-6-trifluoromethyl)phenyl)cyclohexane-1,3-dione], the IC50 is less than 3 µM.

In the case of `O=C1C=C(c2ccccc2)OC(=O)C1=CO` [Compound 448, 3-(hydroxymethylene)-6-phenyl-2H-pyran-2,4(3H)-dione], the concentration for half-maximal inhibition (IC50) is 3 to 15 µM.

Turning to `CC(O)=C1C(=O)CC(c2ccccc2)CC1=O` (centres unmarked) [Compound 449, 2-(1-hydroxyethylidene)-5-phenylcyclohexane-1,3-dione], the IC50 fell in the range of 15 to 100 µM.

For `O=C1CCN(c2ccccc2)C(=O)/C1=C\O` [Compound 450, 3-(hydroxymethylene)-N-phenylpiperidine-2,4-dione], the IC50 lay within 15 to 100 µM.

Regarding `O=C1CC(c2ccccc2)C(F)C(=O)/C1=C/O` (centres unmarked) [Compound 451, 2-(hydroxymethylene)-4-fluoro-5-(phenyl)cyclohexane-1,3-dione], the half-maximal inhibitory concentration (IC50) was 3 to 15 µM.

With `O=C1CC(c2ccccc2)C(F)(F)C(=O)/C1=C/O` (centres unmarked) [Compound 452, 2-(hydroxymethylene)-4,4-difluoro-5-(phenyl)cyclohexane-1,3-dione], the IC50 fell in the range of 3 to 15 µM.

In the case of `O=C1CC(c2cccs2)CC(=O)C1=CO` (centres unmarked) [Compound 453, 2-(hydroxy-methylene)-5-(2-thiophen)cyclo-hexane-1,3-dione lithium salt], the IC50 lay in the range of 3 to 15 µM.

For `O=C1CC(c2cccs2)CC(=O)C1=CO` (centres unmarked) [Compound 455, 2-(hydroxy-methylene)-5-(2-thiophen)cyclo-hexane-1,3-dione potassium salt], the concentration for half-maximal inhibition (IC50) fell in the range of 3 to 15 µM.

In the case of `O=C1CC(c2ccsc2)CC(=O)C1=CO` (centres unmarked) [Compound 456, 2-(hydroxy-methylene)-5-(3-thiophen)cyclo-hexane-1,3-dione lithium salt], the IC50 is 3 to 15 µM.

In the case of `O=C1CC(c2ccsc2)CC(=O)C1=CO` (centres unmarked) [Compound 457, 2-(hydroxy-methylene)-5-(3-thiophen)cyclo-hexane-1,3-dione sodium salt], the concentration for half-maximal inhibition (IC50) is 3 to 15 µM.

`O=C1CC(c2ccsc2)CC(=O)C1=CO` (centres unmarked) [Compound 458, 2-(hydroxy-methylene)-5-(3-thiophen)cyclo-hexane-1,3-dione potassium salt]: the IC50 lay within 3 to 15 µM.
